These results are taken from ChEMBL document CHEMBL1145032, “Effects of heterocyclic aromatic substituents on binding affinities at two distinct sites of somatostatin receptors. Correlation with the electrostatic potential of the substituents” (J Med Chem, 2003).

The structures appear in SMILES notation.

Data set [1] concerns the target T1, Somatostatin receptor type 4 (Homo sapiens, UniProt P31391). Briefly: Tested for binding affinity at human Somatostatin receptor type 4 using ([3-125I-Tyr11)]-SRIF-14 as the radioligand.
Data set [2] deals with Substance-P receptor (Homo sapiens, UniProt P25103). As to the kind of experiment: Binding affinity against Tachykinin receptor 1.
Chain of Substance-P receptor (P25103 whole entry): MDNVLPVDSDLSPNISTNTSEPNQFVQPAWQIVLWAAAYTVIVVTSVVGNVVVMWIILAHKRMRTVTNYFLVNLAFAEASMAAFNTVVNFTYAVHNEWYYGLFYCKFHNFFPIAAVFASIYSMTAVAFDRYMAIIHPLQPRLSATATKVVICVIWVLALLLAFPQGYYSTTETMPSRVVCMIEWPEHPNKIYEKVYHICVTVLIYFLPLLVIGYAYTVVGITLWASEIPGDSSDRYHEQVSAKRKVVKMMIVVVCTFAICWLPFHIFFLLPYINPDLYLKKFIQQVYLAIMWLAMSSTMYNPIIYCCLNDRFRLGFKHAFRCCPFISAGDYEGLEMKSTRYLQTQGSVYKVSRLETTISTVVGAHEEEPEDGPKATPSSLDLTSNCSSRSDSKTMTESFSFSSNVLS
Data set [3] is described as follows: pKHB (hydrogen bond basicity of the heterocycle) was determined.
Data set [4] is described as follows: pKa was determined. The data set is classed as physicochemical.
Data set [5] has as its target T1, Somatostatin receptor type 4. Briefly: Inhibitory concentration required against human Somatostatin receptor type 4.
The target in data set [6] is Somatostatin receptor type 2 (Homo sapiens, UniProt P30874). Briefly: Inhibitory concentration required against human Somatostatin receptor type 2.
Chain of Somatostatin receptor type 2 (P30874 whole entry): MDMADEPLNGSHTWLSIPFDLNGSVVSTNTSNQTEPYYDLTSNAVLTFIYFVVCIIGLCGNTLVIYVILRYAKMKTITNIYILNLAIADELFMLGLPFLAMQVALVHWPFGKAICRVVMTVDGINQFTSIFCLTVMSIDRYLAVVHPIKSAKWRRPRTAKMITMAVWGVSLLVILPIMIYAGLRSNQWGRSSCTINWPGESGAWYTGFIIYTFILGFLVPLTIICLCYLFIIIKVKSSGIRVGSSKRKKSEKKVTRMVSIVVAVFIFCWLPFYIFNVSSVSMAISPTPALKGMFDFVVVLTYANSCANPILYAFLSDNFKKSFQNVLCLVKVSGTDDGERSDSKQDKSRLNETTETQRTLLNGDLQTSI

T1 sequence (P31391 whole entry): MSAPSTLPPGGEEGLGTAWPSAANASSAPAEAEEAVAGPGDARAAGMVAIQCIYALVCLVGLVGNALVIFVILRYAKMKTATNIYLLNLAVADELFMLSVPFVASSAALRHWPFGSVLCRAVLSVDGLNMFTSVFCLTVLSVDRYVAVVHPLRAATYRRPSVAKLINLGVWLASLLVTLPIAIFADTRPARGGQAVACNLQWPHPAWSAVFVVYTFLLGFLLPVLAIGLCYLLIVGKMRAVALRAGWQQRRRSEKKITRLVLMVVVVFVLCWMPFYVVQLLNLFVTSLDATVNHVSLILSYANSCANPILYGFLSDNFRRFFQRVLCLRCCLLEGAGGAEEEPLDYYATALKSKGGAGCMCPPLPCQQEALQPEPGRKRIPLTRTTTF

Turning to `NCCCCCOC[C@H]1O[C@@H](OCCc2c[nH]c3ccccc23)[C@H](OCc2ccccc2)[C@@H](OCc2ccccc2)[C@@H]1OCc1ccccc1`, the Ki in data set [1] worked out at 1650 nM; in data set [2] it was 150 nM.

In the case of `NCCCCCOC[C@H]1O[C@@H](OCCc2c[nH]c3ccccc23)[C@H](OCc2ccccc2)[C@@H](OCc2ccccc2)[C@@H]1OCc1cnccn1`, in data set [3], the pKHB amounted to 1.95. In data set [4], this compound displayed a pKa of 0.7. In data set [1], this compound returned a Ki of 260 nM.

In data set [5], `NCCCCCOC[C@@H]1O[C@H](OCCc2c[nH]c3ccccc23)[C@H](OCc2cnc[nH]2)C(OCc2ccccc2)[C@H]1OCCc1cccnc1` (single isomer, unassigned; (+)) displayed an IC50 of 800 nM.

The compound `NCCCCCOC[C@H]1O[C@@H](OCCc2c[nH]c3ccccc23)[C@H](OCc2cnc[nH]2)[C@@H](OCc2ccccc2)[C@@H]1OCc1cccnc1` showed a Ki in data set [1] of 53 nM. Besides, the IC50 is 53 nM in data set [5] and 2250 nM in data set [6].

`NCCCCCOC[C@@H]1O[C@H](OCCc2c[nH]c3ccccc23)[C@H](OCc2cnc[nH]2)C(OCc2ccccc2)[C@H]1OCc1ccccc1` (single isomer, unassigned; (+)) returned a Ki in data set [1] of 100 nM. For the same compound, the IC50 in data set [5] came to 100 nM; in data set [6], 800 nM.

As to `Cc1ccc(CO[C@H]2[C@H](OCc3ccccc3)[C@@H](OCc3ccccc3)[C@H](OCCc3c[nH]c4ccccc34)O[C@@H]2COCCCCCN)cn1`, the pKHB in data set [3] was determined as 1.05. This compound also displayed a pKa in data set [4] of 6.1. The affinity in data set [1], expressed as Ki, was 1260 nM.

Compound `NCCCCCOC[C@H]1O[C@@H](OCCc2c[nH]c3ccccc23)[C@H](OCc2ccccc2)[C@@H](OCc2ccccc2)[C@@H]1OCc1ccncc1` had a pKHB in data set [3] of 1.86. The compound further displayed a pKa in data set [4] of 5.2. For the same compound, in data set [1], the Ki is 570 nM.

As to `NCCCCCOC[C@H]1O[C@@H](OCCc2c[nH]c3ccccc23)[C@H](OCc2ccccc2)[C@@H](OCc2ccccc2)[C@@H]1OCc1c[nH]cn1`, the pKHB in data set [3] turned out to be 2.03. The same compound came in with a pKa in data set [4] of 7.2. Besides, the Ki in data set [1] was 1040 nM.

For `NCCCCCOC[C@H]1O[C@@H](OCCc2c[nH]c3ccccc23)[C@H](OCc2ccccc2)[C@@H](OCc2ccccc2)[C@@H]1OCc1ccccn1`, the pKHB in data set [3] was 1.86. Besides, the pKa in data set [4] worked out at 5.2. This compound also showed a Ki in data set [1] of 890 nM.

The compound `CC(=O)NCCCCCOC[C@H]1O[C@@H](OCCc2c[nH]c3ccccc23)[C@H](OCc2ccccc2)[C@@H](OCc2ccccc2)[C@@H]1O` yielded a Ki in data set [2] of 27 nM.

`NCCCCCOC[C@H]1O[C@@H](OCCc2c[nH]c3ccccc23)[C@H](OCc2ccccc2)[C@@H](OCc2ccccc2)[C@@H]1OCc1ccc(Cl)nc1` came in with a pKa in data set [4] of 0.5. In addition, the Ki in data set [1] came out at 1200 nM.

In data set [3], `NCCCCCOC[C@H]1O[C@@H](OCCc2c[nH]c3ccccc23)[C@H](OCc2ccccc2)[C@@H](OCc2ccccc2)[C@@H]1OCc1cccnc1` returned a pKHB of 1.86. Moreover, the pKa in data set [4] was determined as 5.2. This compound had a Ki in data set [1] of 360 nM.

On to `NCCCCCOC[C@H]1O[C@@H](OCCc2c[nH]c3ccccc23)[C@H](OCc2ccccc2)[C@@H](OCc2ccccc2)[C@@H]1OCc1ccc(F)nc1`, for which the pKHB in data set [3] was determined as 0.95. In data set [4], this compound showed a pKa of -0.4. The compound also displayed an inhibitory constant (Ki) in data set [1] of 680 nM.

The term Ki denotes a measure of affinity in units of concentration, obtained from inhibition or displacement. Low values mean tighter binding, high ones weaker binding. For orientation: pKa means the negative logarithm of the acid dissociation constant. Lower therefore signals a group that gives up its proton readily. By IC50 is commonly meant the concentration that gives 50% inhibition. Higher therefore signals weaker potency in that assay.
